Publication PMC9486186 (Bioactive Materials, 2022)

Tested on: BCR-ABL(T315I) induced CML mice
Experiment: Survival of BCR-ABL
Assay type: in vivo, mouse
Conditions: BPTES 10 mg/kg monotherapy

## O=C(Cc1ccccc1)Nc1nnc(CCSCCc2nnc(NC(=O)Cc3ccccc3)s2)s1 [BPTES]
  mice still alive on day 60 post BMT: 3/9
